Paper PMC8226474, “Design, Syntheses, and Bioevaluations of Some Novel N^2-Acryloylbenzohydrazides as Chemostimulants and Cytotoxic Agents” (Medicines, 2021)

Columns and labels:
[1] = tested on: Ramos, NALM-60, CEM, HL-60, JURKAT, RAJI cells; assay: Cytotoxicity (CC50), average over six leukemia/lymphoma cell lines; assay type: cell-based, human; details: for CC50: Homo sapiens, average over six neoplastic cell lines
Description: (§1) In brief, the compounds were incubated for 24 h with the neoplasms, using DMEM and RPMI media. Three independent experiments were carried out.

RAJI cells = assay: Cytotoxicity (CC50), Raji cells; assay type: cell-based, human; details: for CC50: Homo sapiens, Raji, 24 h incubation; for SI RAJI: average CC50 of non-malignant cells / CC50 RAJI
Description: as §1

MCF-7 cells = assay: Cytotoxicity assay, MCF-7 breast cancer cells; assay type: cell-based, human; details: for inhibition at 10 µM / inhibition at 100 µM: read-out: percentage inhibition of MCF-7 cells
Source text: (§2) Evaluation of the cytotoxic properties of the compounds presented in Table 1, Table 2, Table 3 and Table 4 was undertaken using the procedure outlined in [7]. In brief, the HCT 116 cells were obtained from the ATCC and cultured in McCoy’s 5A medium. The CRL 1790 cells were obtained from the ATCC and cultured in Minimum Essential Medium. The MCF-7 and MDA-MBA-231 cells were obtained from the Saskatchewan Cancer Agency and cultured in DMEM. In each assay the culture medium was supplemented with 10% fetal bovine serum and 1% penicillin–streptomycin antibiotics. The time of the bioassays was 48 h, unless indicated otherwise. All determinations were carried out in triplicate on three different occasions.

HCT 116 cells = assay: Cytotoxicity assay, HCT 116 colon cancer cells; assay type: cell-based, human; details: for inhibition at 10 µM / inhibition at 100 µM: read-out: percentage inhibition of HCT 116 cells
Source text: as §2

[2] = Cytotoxicity (CC50), average over non-malignant cells; assay type: cell-based; details: human, Hs27 and MCF10A cells (non-malignant), average of both
Description: as §1

CEM cells = assay: Cytotoxicity (CC50), CEM cells; assay type: cell-based, human; details: for CC50: Homo sapiens, CCRF-CEM, 24 h incubation; for SI CEM: average CC50 of non-malignant cells / CC50 CEM
Description: as §1

MDA-MB-231 cells = assay: Cytotoxicity assay, MDA-MB-231 breast cancer cells; assay type: cell-based, human; details: Homo sapiens, MDA-MB-231, 48 h, read-out: percentage inhibition of MDA-MB-231 cells
Source text: as §2

[3] = Cytotoxicity (CC50), non-malignant Hs27 foreskin cells; assay type: cell-based; details: human, 24 h incubation
Description: as §1

JURKAT cells = assay: Cytotoxicity (CC50), Jurkat cells; assay type: cell-based, human; details: for CC50: Homo sapiens, Jurkat, 24 h incubation; for SI JURKAT: average CC50 of non-malignant cells / CC50 JURKAT
Description: as §1

NALM-60 cells = assay: Cytotoxicity (CC50), NALM-60 cells; assay type: cell-based, human; details: for CC50: Homo sapiens, 24 h incubation; for SI NALM-60: average CC50 of non-malignant cells / CC50 NALM-60
Description: as §1

Ramos cells [4] = assay: Cytotoxicity (CC50), Ramos cells; assay type: cell-based, human; details: for CC50: Homo sapiens, Ramos, 24 h incubation; for SI Ramos: average CC50 of non-malignant cells / CC50 Ramos
Description: as §1

HL-60 cells = assay: Cytotoxicity (CC50), HL-60 cells; assay type: cell-based, human; details: for CC50: Homo sapiens, HL-60, 24 h incubation; for SI HL-60: average CC50 of non-malignant cells / CC50 HL-60
Description: as §1

[5] = Cytotoxicity (CC50), non-malignant MCF-10A breast cells; assay type: cell-based; details: human, MCF-10A cells (non-malignant breast cells); 24 h incubation; read-out: Non-Malignant Cells CC50, MCF10A
Description: as §1

Ramos cells [6] = assay: Mitochondrial membrane potential of Ramos cells (JC-1 dye, flow cytometry); assay type: cell-based, human; details: 5 h, Figure 3
Description: The effect of 1l on the mitochondrial membrane potential of Ramos cells was determined using the procedure laid out in [9]. In brief, the cells were treated with 1l for 5 h, stained with the JC-1 dye, and then the results were analyzed by flow cytometry.
The MMP of Ramos cells was determined using the JC-1 dye. In this assay, JC-1 enters the energized mitochondria in healthy cells and forms aggregates to produce red fluorescence at 590 nm. However, cells undergoing apoptotic cell death have a low mitochondrial membrane potential.

CRL 1790 cells = assay: Cytotoxicity assay, non-malignant CRL 1790 colon cells; assay type: cell-based; details: Homo sapiens, 48 h, Table 2, read-out: Non-Malignant CRL 1790 Cells IC50
Source text: as §2

Row | Compound | Avg SI, neoplastic cells [1] | CC50 [1] | CC50 (RAJI cells) | SI RAJI (RAJI cells) | inhibition at 10 µM (MCF-7 cells; Homo sapiens, MCF7, 48 h) | inhibition at 100 µM (MCF-7 cells; Homo sapiens, MCF7, 48 h) | inhibition at 10 µM (HCT 116 cells; Homo sapiens, HCT-116, 48 h) | inhibition at 100 µM (HCT 116 cells; Homo sapiens, HCT-116, 48 h) | CC50 at 24 h [2] | CC50 (CEM cells) | SI CEM (CEM cells) | inhibition at 10 µM (MDA-MB-231 cells) | inhibition at 100 µM (MDA-MB-231 cells) | CC50 at 24 h [3] | CC50 (JURKAT cells) | SI JURKAT (JURKAT cells) | CC50 (NALM-60 cells) | SI NALM-60 (NALM-60 cells) | CC50 (Ramos cells [4]) | SI Ramos (Ramos cells [4]) | other results
1 | C=CC(=O)NNC(=O)c1cc(Cl)ccc1Cl [1h, N^2-Acryloyl-2,5-dichlorobenzohydrazide] | 11.0 | 3.44 µM | 5.5 ± 1.1 µM | 2.49 | 14.7 ± 3.68% | 54.2 ± 3.42% | 7.12 ± 1.51% | 87.7 ± 1.62% | 13.7 µM | 3.37 ± 0.18 µM | 4.07 | -5.95 ± 4.21% | 122 ± 2.9% | 14.4 ± 0.24 µM | 2.5 ± 0.24 µM | 5.48 | 3.34 ± 0.43 µM | 4.10 | 0.29 ± 0.05 µM | 47.2 | melting point: 207 to 210 °C; CC50 (HL-60 cells): 5.62 ± 0.29 µM; SI HL-60 (HL-60 cells): 2.44; CC50 at 24 h [5]: 12.9 ± 0.95 µM
2 | C=CC(=O)NNC(=O)c1ccc(OC)cc1 [1l, N^2-Acryloyl-4-methoxylbenzohydrazide] | 22.7 | 1.97 µM | 2.93 ± 0.43 µM | 6.11 | 60.6 ± 3.29% | 99.4 ± 2.34% | 8.62 ± 2.79% | 85.1 ± 3.28% | 17.9 µM | 1.42 ± 0.25 µM | 12.6 | -4.95 ± 3.12% | 47.7 ± 3.19% | 17.7 ± 0.62 µM | 2.17 ± 0.45 µM | 8.25 | 3.25 ± 0.99 µM | 5.51 | 0.19 ± 0.01 µM | 94.2 | effect on mitochondrial membrane potential of Ramos cells (Ramos cells [6]; CC50 concentration of 1l, vs control): significantly depolarized; effect on mitochondrial membrane potential of Ramos cells (Ramos cells [6]; doubled (2 x CC50) concentration of 1l): approximately twofold increase in the mitochondrial depolarization; IC50 (MCF-7 cells; Homo sapiens, MCF7, Table 2, 48 h, read-out: Neoplastic Cells IC50, MCF-7): 3.18 ± 0.53 µM; SI (selectivity index) (MCF-7 cells; IC50 CRL 1790 / IC50 MCF-7, Table 2): >31.5; IC50 (CRL 1790 cells): > 100 µM; CC50 (HL-60 cells): 1.86 ± 0.66 µM; SI HL-60 (HL-60 cells): 9.62; CC50 at 24 h [5]: 18.1 ± 0.84 µM
3 | C=CC(=O)NNC(=O)c1ccccc1 [1a, N^2-Acryloylbenzohydrazide] | 16.1 | 2.64 µM | 5.18 ± 0.35 µM | 2.49 | 5.47 ± 3.52% | 51.1 ± 2.87% | 10.6 ± 1.7% | 94.1 ± 1.44% | 12.9 µM | 0.91 ± 0.48 µM | 14.2 | -12.2 ± 1.5% | 52.1 ± 2.04% | 12.1 ± 0.91 µM | 3.52 ± 0.36 µM | 3.65 | 2.74 ± 0.59 µM | 4.71 | 0.19 ± 0.01 µM | 67.9 | IC50 (CRL 1790 cells): > 100 µM; IC50 (HCT 116 cells; Homo sapiens, HCT-116, Table 2, 48 h, read-out: Neoplastic Cells IC50, HCT 116): 36.9 ± 2.84 µM; SI (selectivity index) (HCT 116 cells; IC50 CRL 1790 / IC50 HCT 116, Table 2): >2.70; melting point: 177 to 179 °C; CC50 (HL-60 cells): 3.32 ± 0.26 µM; SI HL-60 (HL-60 cells): 3.89; CC50 at 24 h [5]: 13.7 ± 1.1 µM
4 | C=CC(=O)NNC(=O)c1ccc(Cl)cc1 [1d, N^2-Acryloyl-4-chlorobenzohydrazide] | 14.2 | 1.76 µM | 2.71 ± 0.09 µM | 3.24 | 3.59 ± 2.08% | 55.9 ± 2.82% | -5.05 ± 2.36% | 82.3 ± 0.8% | 8.69 µM | 0.86 ± 0.07 µM | 10.1 | -12.3 ± 4.05% | 49.1 ± 2.04% | 10.5 ± 0.05 µM | 1.07 ± 0.09 µM | 8.12 | 2.86 ± 0.55 µM | 3.04 | 0.15 ± 0.02 µM | 57.9 | melting point: 233 to 235 °C; CC50 (HL-60 cells): 2.9 ± 0.76 µM; SI HL-60 (HL-60 cells): 3.00; CC50 at 24 h [5]: 6.87 ± 0.48 µM
